Laboratory results: US4147778A, “Antibiotic baumycin complex and components thereof” (Zaidan Hojin Biseibutsu Kagaku Kenkyu Kai, priority 1976, dated 1979)
Converted amounts (≈) assume the structure as drawn. “Also recorded” adds a separate entry of the source. Like-named read-outs stand apart in the source and are kept apart here.

Assays:
[1] = system: B. cereus ATCC 9634; experiment: Minimum inhibitory concentration, broth dilution method; assay type: cell-based; settings: for MIC: Bacillus cereus, ATCC9634, B. cereus ATCC 9634; for Minimum inhibitory concentration: B. cereus ATCC 9634
From the text: (§1) The minimum inhibitory concentration of the present antibiotics as determined by the broth dilution method are shown in Table 1.

[2] = system: B. megarterium NRRL B-938; experiment: as above; assay type: cell-based
From the text: as §1

[3] = system: B. subtilis ATCC 6633; experiment: as above; assay type: cell-based; settings: for Minimum inhibitory concentration: B. subtilis ATCC 6633
From the text: as §1

[4] = system: Candida albicans IAM 4905; experiment: as above; assay type: cell-based; settings: for MIC: IAM4905, Candida albicans IAM 4905; for Minimum inhibitory concentration: Candida albicans IAM 4905
From the text: as §1

[5] = system: Candida tropicalis; experiment: as above; assay type: cell-based
From the text: as §1

[6] = system: Coryne. bovis 1810; experiment: as above; assay type: cell-based
From the text: as §1

[7] = system: Micrococcus flavs; experiment: as above; assay type: cell-based
From the text: as §1

[8] = system: Mycobacterium smegmatis ATCC 607; experiment: as above; assay type: cell-based; settings: for MIC: Mycolicibacterium smegmatis, ATCC607, Mycobacterium smegmatis ATCC 607; for Minimum inhibitory concentration: Mycobacterium smegmatis ATCC 607
From the text: as §1

[9] = system: Proteus morganii; experiment: as above; assay type: cell-based; settings: for MIC: Morganella morganii
From the text: as §1

[10] = system: Ps. fluorescens NIHJB-254; experiment: as above; assay type: cell-based; settings: for MIC: Pseudomonas fluorescens, NIHJB254, Ps. fluorescens NIHJB-254; for Minimum inhibitory concentration: Ps. fluorescens NIHJB-254
From the text: as §1

[11] = system: Sarcina lutea ATCC 9341; experiment: as above; assay type: cell-based; settings: for Minimum inhibitory concentration: Sarcina lutea ATCC 9341
From the text: as §1

[12] = system: Staph. aureus FDA209P; experiment: as above; assay type: cell-based; settings: for MIC: Staphylococcus aureus, FDA209P
From the text: as §1

[13] = system: Staph. aureus Smith; experiment: as above; assay type: cell-based; settings: for MIC: Staphylococcus aureus
From the text: as §1

[14] = system: mouse L-1210 leukemia; experiment: Prolongation of survival time of mice inoculated with L-1210 leukemia; assay type: in vivo, BDF1 mice; settings: for Prolongation of the survival time T/C: BDF1 mice, 1 × 10^6 L-1210 cells i.p., day 30; for Inhibitory effect on mouse L-1210 leukemia: in words
From the text: (§2) For example, BDF1 mice were inoculated intraperitoneally with 1 × 10^6 L-1210 cells/mouse and 24 hrs. after inoculation the drug was intraperitoneally injected once daily for 10 days consecutively. On day 30, the % of prolongation of the survival time to control was as follows: […]

[15] = Acute toxicity, LD50 upon intraperitoneal injection; assay type: in vivo
From the text: The LD50 values upon intraperitoneal injection of the
antibiotics of the present invention are shown in the […]

[16] = Solubility; assay type: physicochemical
[17] = system: gram-positive bacteria; experiment: Antimicrobial activity against gram-positive bacteria; assay type: cell-based
From the text: as §1

[18] = system: animal tumors; experiment: Inhibition of growth of animal tumors; assay type: in vivo; settings: experimental animal tests
From the text: as §2

[19] = Toxicity in experimental animal tests; assay type: in vivo
[20] = system: animal tumor systems; settings: reported in J. Antibiotics 27:254-259 (1974) and others; cited from earlier work
[21] = 0.06 mg./kg./day i.p. once daily for 10 days
[22] = in acidic water, DMSO, methylcellosolve, methanol, ethanol, n-propanol, n-butanol, ethyl acetate, butyl acetate, acetone, methyl ethyl ketone, methylene chloride and chloroform
[23] = in n-hexane, cyclohexane and petroleum ether
[24] = 0.125 mg./kg./day i.p. once daily for 10 days
[25] = 0.25 mg./kg./day i.p. once daily for 10 days
[26] = 0.5 mg./kg./day i.p. once daily for 10 days
[27] = 1 mg./kg./day i.p. once daily for 10 days
[28] = 2 mg./kg./day i.p. once daily for 10 days
[29] = 4 mg./kg./day i.p. once daily for 10 days
[30] = 6 mg./kg./day i.p. once daily for 10 days
[31] = 8 mg./kg./day i.p. once daily for 10 days
[32] = in acidic water, methyl cellosolve, methanol, ethanol, n-propanol and n-butanol
[33] = in ethyl acetate, acetone, methylene chloride, chloroform, carbon tetrachloride, benzene, toluene, ethyl ether and n-hexane

Structure (SMILES): COc1cccc2c1C(=O)c1c(O)c3c(c(O)c1C2=O)CC(O)(C(C)=O)CC3OC1CC(N)C(OC(CC(C)O)OC(C)CO)C(C)O1 (stereo not drawn) [BM-A1]
- MIC [1]: 1.56 µg/mL (≈ 2.32 µM)
- Minimum inhibitory concentration [2]: 1.56 µg/mL (≈ 2.32 µM)
- Minimum inhibitory concentration [3]: 0.78 µg/mL (≈ 1.16 µM)
- MIC [4]: 100 µg/mL (≈ 148 µM)
- MIC [5]: 100 µg/mL (≈ 148 µM)
- Minimum inhibitory concentration [6]: 1.56 µg/mL (≈ 2.32 µM)
- MIC ([7]; Micrococcus, read-out: Minimum inhibitory concentration, Micrococcus flavs): 0.78 µg/mL (≈ 1.16 µM)
- MIC [8]: 6.25 µg/mL (≈ 9.28 µM)
- MIC [9]: > 100 µg/mL
- MIC [10]: > 100 µg/mL
- Minimum inhibitory concentration [11]: 0.78 µg/mL (≈ 1.16 µM)
- MIC [12]: 1.56 µg/mL (≈ 2.32 µM)
- MIC [13]: 0.78 µg/mL (≈ 1.16 µM)
- Prolongation of the survival time T/C ([14]; 0.004 mg./kg./day i.p. once daily for 10 days): 131%
- Prolongation of the survival time T/C ([14]; 0.008 mg./kg./day i.p. once daily for 10 days): 131%
- Prolongation of the survival time T/C ([14]; 0.015 mg./kg./day i.p. once daily for 10 days): 155%
- Prolongation of the survival time T/C ([14]; 0.03 mg./kg./day i.p. once daily for 10 days): 187%
- Prolongation of the survival time T/C [14, 21]: > 300%
- Inhibitory effect on mouse L-1210 leukemia [14]: marked inhibitory effects
- LD50 [15]: 1.5 to 2.5 mg/kg
- Solubility [16, 22]: Soluble
- Solubility [16, 23]: Insoluble
- Solubility ([16]; in water): Insoluble
- Antimicrobial activity ([17]; listed as Baumycin A1): inhibit the growth of gram-positive bacteria; also recorded: possess antimicrobial activity, especially against gram-positive bacteria
- Inhibition of growth of animal tumors / antitumor activity ([18]; listed as Baumycin A1): inhibit the growth of various animal tumors; also recorded: marked antitumor activity; also recorded: marked inhibitory action against animal malignant tumors, especially ascitic and solid tumors
- Toxicity [19]: low toxicity

Structure (SMILES): COc1cccc2c1C(=O)c1c(O)c3c(c(O)c1C2=O)CC(O)(C(C)=O)CC3OC1CC(N)C(OC(CC(C)O)OC(C)CO)C(C)O1 (stereo not drawn) [BM-A2]
- Minimum inhibitory concentration [1]: 3.12 µg/mL (≈ 4.63 µM)
- Minimum inhibitory concentration [2]: 6.25 µg/mL (≈ 9.28 µM)
- Minimum inhibitory concentration [3]: 3.12 µg/mL (≈ 4.63 µM)
- Minimum inhibitory concentration [4]: 100 µg/mL (≈ 148 µM)
- Minimum inhibitory concentration [5]: 100 µg/mL (≈ 148 µM)
- Minimum inhibitory concentration [6]: 6.25 µg/mL (≈ 9.28 µM)
- Minimum inhibitory concentration ([7]; Micrococcus flavs): 1.56 µg/mL (≈ 2.32 µM)
- Minimum inhibitory concentration [8]: 12.5 µg/mL (≈ 18.6 µM)
- Minimum inhibitory concentration [9]: > 100 µg/mL
- Minimum inhibitory concentration [10]: 100 µg/mL (≈ 148 µM)
- Minimum inhibitory concentration [11]: 3.12 µg/mL (≈ 4.63 µM)
- Minimum inhibitory concentration [12]: 3.12 µg/mL (≈ 4.63 µM)
- Minimum inhibitory concentration [13]: 1.56 µg/mL (≈ 2.32 µM)
- Prolongation of the survival time T/C [14, 21]: 141%
- Prolongation of the survival time T/C [14, 24]: 151%
- Prolongation of the survival time T/C [14, 25]: 163%
- Prolongation of the survival time T/C [14, 26]: 173%
- Prolongation of the survival time T/C [14, 27]: 167%
- Inhibitory effect on mouse L-1210 leukemia [14]: marked inhibitory effects
- LD50 [15]: 15 to 20 mg/kg
- Solubility [16, 22]: Soluble
- Solubility [16, 23]: Insoluble
- Solubility ([16]; in water): Insoluble
- Antimicrobial activity ([17]; listed as Baumycin A2): inhibit the growth of gram-positive bacteria; also recorded: possess antimicrobial activity, especially against gram-positive bacteria
- Inhibition of growth of animal tumors / antitumor activity ([18]; listed as Baumycin A2): inhibit the growth of various animal tumors; also recorded: marked antitumor activity; also recorded: marked inhibitory action against animal malignant tumors, especially ascitic and solid tumors
- Toxicity [19]: low toxicity

Structure (SMILES): COc1cccc2c1C(=O)c1c(O)c3c(c(O)c1C2=O)CC(O)(C(C)=O)CC3OC1CC(N)C(OC(CC(C)O)OC(C)C(=O)O)C(C)O1 (stereo not drawn) [BM-B1]
- MIC [1]: 100 µg/mL (≈ 145 µM)
- MIC [2]: 100 µg/mL (≈ 145 µM)
- MIC ([3]; Bacillus subtilis, ATCC6633, B. subtilis ATCC 6633): 100 µg/mL (≈ 145 µM)
- MIC ([4]; Candida albicans): 100 µg/mL (≈ 145 µM)
- MIC [5]: 100 µg/mL (≈ 145 µM)
- MIC ([6]; Corynebacterium bovis): 50 µg/mL (≈ 72.7 µM)
- MIC ([7]; Micrococcus flavs, read-out: Minimum inhibitory concentration): 50 µg/mL (≈ 72.7 µM)
- MIC [8]: 100 µg/mL (≈ 145 µM)
- MIC [9]: > 100 µg/mL
- MIC [10]: 100 µg/mL (≈ 145 µM)
- MIC ([11]; Micrococcus luteus, ATCC9341, Sarcina lutea ATCC 9341): 50 µg/mL (≈ 72.7 µM)
- MIC [12]: 50 µg/mL (≈ 72.7 µM)
- MIC [13]: 50 µg/mL (≈ 72.7 µM)
- Prolongation of the survival time T/C [14, 24]: 93%
- Prolongation of the survival time T/C [14, 25]: 99%
- Prolongation of the survival time T/C [14, 26]: 99%
- Prolongation of the survival time T/C [14, 27]: 105%
- Prolongation of the survival time T/C [14, 28]: 117%
- Prolongation of the survival time T/C [14, 29]: 136%
- Prolongation of the survival time T/C [14, 30]: 165%
- Prolongation of the survival time T/C [14, 31]: 147%
- Inhibitory effect on mouse L-1210 leukemia [14]: marked inhibitory effects
- LD50 ([15]; in vivo, ip, read-out: LD50): 40 to 60 mg/kg
- Solubility [16, 32]: Soluble
- Solubility [16, 33]: Insoluble
- Solubility ([16]; in water, listed as Baumycin B1): Insoluble
- Antimicrobial activity ([17]; listed as Baumycin B1): inhibit the growth of gram-positive bacteria; also recorded: possess antimicrobial activity, especially against gram-positive bacteria
- Inhibition of growth of animal tumors / antitumor activity ([18]; listed as Baumycin B1): inhibit the growth of various animal tumors; also recorded: marked antitumor activity; also recorded: marked inhibitory action against animal malignant tumors, especially ascitic and solid tumors
- Toxicity [19]: low toxicity

Structure (SMILES): COc1cccc2c1C(=O)c1c(O)c3c(c(O)c1C2=O)CC(O)(C(C)=O)CC3OC1CC(N)C(OC(CC(C)O)OC(C)C(=O)O)C(C)O1 (stereo not drawn) [BM-B2]
- Minimum inhibitory concentration [1]: > 100 µg/mL
- Minimum inhibitory concentration [2]: > 100 µg/mL
- Minimum inhibitory concentration [3]: > 100 µg/mL
- Minimum inhibitory concentration [4]: > 100 µg/mL
- Minimum inhibitory concentration [5]: > 100 µg/mL
- Minimum inhibitory concentration [6]: 50 µg/mL (≈ 72.7 µM)
- Minimum inhibitory concentration ([7]; Micrococcus flavs): 50 µg/mL (≈ 72.7 µM)
- Minimum inhibitory concentration [8]: > 100 µg/mL
- Minimum inhibitory concentration [9]: > 100 µg/mL
- Minimum inhibitory concentration [10]: > 100 µg/mL
- Minimum inhibitory concentration [11]: 25 µg/mL (≈ 36.4 µM)
- Minimum inhibitory concentration [12]: 100 µg/mL (≈ 145 µM)
- Minimum inhibitory concentration [13]: 50 µg/mL (≈ 72.7 µM)
- Prolongation of the survival time T/C [14, 27]: 99%
- Prolongation of the survival time T/C [14, 28]: 99%
- Prolongation of the survival time T/C [14, 29]: 111%
- Prolongation of the survival time T/C [14, 30]: 135%
- Prolongation of the survival time T/C [14, 31]: 155%
- Inhibitory effect on mouse L-1210 leukemia [14]: marked inhibitory effects
- LD50 [15]: 75 to 100 mg/kg
- Solubility [16, 32]: Soluble
- Solubility [16, 33]: Insoluble
- Solubility ([16]; in water, listed as Baumycin B2): soluble
- Antimicrobial activity ([17]; listed as Baumycin B2): inhibit the growth of gram-positive bacteria; also recorded: possess antimicrobial activity, especially against gram-positive bacteria
- Inhibition of growth of animal tumors / antitumor activity ([18]; listed as Baumycin B2): inhibit the growth of various animal tumors; also recorded: marked antitumor activity; also recorded: marked inhibitory action against animal malignant tumors, especially ascitic and solid tumors
- Toxicity [19]: low toxicity

Structure (SMILES): CC(=O)[C@]1(O)Cc2c(O)c3c(c(O)c2[C@@H](O[C@H]2C[C@H](N)[C@H](O)[C@H](C)O2)C1)C(=O)c1c(O)cccc1C3=O [carminomycin]
- Activity in animal tumor systems [20]: active in several animal tumor systems
